Laboratory results published in PMC12212144, “The VanS sensor histidine kinase from type-B vancomycin-resistant enterococci recognizes vancomycin directly” (The Journal of Biological Chemistry, 2025).

Tests used:
[1] = biological target: full-length VanSB (in nanodiscs) (Enterococcus faecalis, UniProt Q47745); assay: biochemical
[2] = biological target: T1, single-copy VanSB periplasmic sensor domain (Enterococcus faecalis, UniProt Q47745); assay: biochemical
[3] = biological target: T2, tandem VanSB periplasmic sensor domain (Enterococcus faecalis, UniProt Q47745); assay: biochemical
[4] = biological target: T1, single-copy VanSB periplasmic sensor domain; assay: fluorescence anisotropy; assay type: binding; set-up: periplasmic sensor domain Q31-G132, single copy; expressed in E. coli as TEV-cleavable 6xHis-MBP fusion, tag removed; settings: labelled compound, 100 nM; 20 mM Tris pH 7.5, 100 mM NaCl, 0.01% Triton X-100, room temperature
[5] = biological target: T2, tandem VanSB periplasmic sensor domain; assay: fluorescence anisotropy; assay type: binding; set-up: two copies of periplasmic domain Q31-G132 in one polypeptide joined by GSGGS linker; expressed in E. coli as TEV-cleavable 6xHis-MBP fusion, tag removed; settings: labelled compound, 100 nM; 20 mM Tris pH 7.5, 100 mM NaCl, 0.01% Triton X-100, room temperature
[6] = biological target: T3, cVanSB (cytosolic domain of VanSB) (Enterococcus faecalis, UniProt Q47745); assay: autophosphorylation with ATPγS, anti-thiophosphohistidine (PNBM) Western blot; assay type: biochemical; settings: 1 mM ATPγS, 10 mM MgCl2, pH 7.4; not affected by vancomycin
T3 construct: cytosolic domain M159-L447, C-terminal His6 (pETCH), expressed in E. coli
T3 sequence (Q47745 159-447): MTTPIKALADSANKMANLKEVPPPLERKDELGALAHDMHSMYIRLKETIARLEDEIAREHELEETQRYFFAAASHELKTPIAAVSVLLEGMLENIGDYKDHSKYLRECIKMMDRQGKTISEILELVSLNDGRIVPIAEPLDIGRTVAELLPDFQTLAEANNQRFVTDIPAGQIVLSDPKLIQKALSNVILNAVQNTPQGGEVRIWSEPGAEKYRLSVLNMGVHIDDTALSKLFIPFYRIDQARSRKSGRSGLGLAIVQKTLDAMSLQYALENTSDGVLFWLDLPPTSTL

T2 sequence (Q47745 31-132): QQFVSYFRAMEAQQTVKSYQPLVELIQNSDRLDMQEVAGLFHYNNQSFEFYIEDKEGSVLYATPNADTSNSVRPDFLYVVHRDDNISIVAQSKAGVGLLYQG
T1 sequence (Q47745 31-132): as above
Chain of full-length VanSB (in nanodiscs) (Q47745 whole entry, the tested form may be a part): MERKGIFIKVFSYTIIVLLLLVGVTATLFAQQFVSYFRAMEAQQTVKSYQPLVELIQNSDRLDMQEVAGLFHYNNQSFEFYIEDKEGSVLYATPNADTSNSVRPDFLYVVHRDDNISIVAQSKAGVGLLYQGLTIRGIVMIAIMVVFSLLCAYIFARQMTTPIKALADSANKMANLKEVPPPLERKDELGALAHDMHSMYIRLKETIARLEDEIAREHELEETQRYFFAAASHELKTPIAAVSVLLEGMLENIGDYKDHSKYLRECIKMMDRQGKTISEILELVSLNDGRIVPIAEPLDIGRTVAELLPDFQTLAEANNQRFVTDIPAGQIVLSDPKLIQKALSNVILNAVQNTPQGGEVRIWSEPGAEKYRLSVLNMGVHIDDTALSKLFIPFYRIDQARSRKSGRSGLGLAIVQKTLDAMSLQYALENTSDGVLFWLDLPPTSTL

## CN[C@H](CC(C)C)C(=O)N[C@H]1C(=O)N[C@@H](CC(N)=O)C(=O)N[C@H]2C(=O)N[C@H]3C(=O)N[C@H](C(=O)N[C@H](C(=O)O)c4cc(O)cc(O)c4-c4cc3ccc4O)[C@H](O)c3ccc(c(Cl)c3)Oc3cc2cc(c3O[C@@H]2O[C@H](CO)[C@@H](O)[C@H](O)[C@H]2O[C@H]2C[C@](C)(N)[C@H](O)[C@H](C)O2)Oc2ccc(cc2Cl)[C@H]1O [vancomycin]
[1]
  EC50: 43 ± 12.5 µM
[2]
  Kd: 20.7 µM
[3]
  Kd: 11 µM

## CN[C@H](CC(C)C)C(=O)N[C@H]1C(=O)N[C@@H](CC(N)=O)C(=O)N[C@H]2C(=O)N[C@H]3C(=O)N[C@H](C(=O)N[C@H](C(=O)O)c4cc(O)cc(O)c4-c4cc3ccc4O)[C@H](O)c3ccc(c(Cl)c3)Oc3cc2cc(c3O[C@@H]2O[C@H](CO)[C@@H](O)[C@H](O)[C@H]2O[C@H]2C[C@](C)(NC(=O)CCc3ccc4n3[B-](F)(F)[N+]3=C(C)C=C(C)C3=C4)[C@H](O)[C@H](C)O2)Oc2ccc(cc2Cl)[C@H]1O [BODIPY-FL-vancomycin]
[4]
  Kd: 20.3 µM
[5]
  Kd: 10.7 µM

## Nc1ncnc2c1ncn2[C@@H]1O[C@H](COP(=O)(O)OP(=O)(O)OP(O)(O)=S)[C@@H](O)[C@H]1O [ATPγS]
[6]
  autophosphorylation with ATPγS, anti-thiophosphohistidine (PNBM) Western blot: autophosphorylation time course for full-length VanSB (reconstituted in nanodiscs) and its cytosolic domain

## AF488-vancomycin
[5]
  Kd: 11 µM
